{"source": "patent US20030133881A1", "about": "“Formulations for the remineralization of teeth” (priority 2001, published 2003)", "key": {"[1]": {"system": "microflora from primary root carious lesions (PRCL)", "assay": "Ozone effect on microflora from primary root caries ex-vivo", "format": "cell-based", "conditions": "for Mean ± SE of Total cfu (Log10): After 10 Seconds of Ozone Treatment", "excerpt": "Primary root carious lesions (PRCL) are a major clinical problem. The aim of this study was to establish if ozone could achieve effective microbial killing in PRCL. An ozone producing generator (Purezone Ltd., Ipswich, U.K.) was used in this ex-vivo study assessing the use of ozone on PRCL. In this study, soft PRCL requiring restoration were used as these are the most severe type of lesion found in humans. 20 freshly extracted teeth with PRCL requiring restoration were used. After plaque removal using a hand held standard fine nylon fiber sterile toothbrush with sterile water as a lubricant to cleanse the surface, each tooth was then isolated using sterile cotton wool rolls and dried using a dry sterile cotton wool roll. […] Each sample was weighed and immediately placed in 1 ml of Fastidious Anaerobe Broth (FAB). To each 1 ml of FAB containing a biopsy o carious or ozone treated carious dentine, sterile glass beads were added. They were vortexed for 30 seconds to facilitate the extraction of any micro-organisms from the carious dentine and disperse any aggregates.\nThe procedure of Example 2 was repeated except that ozonized water was applied to the lesion for 20 seconds."}, "[2]": {"system": "Streptococcus sobrinus; TH 21", "assay": "Ozone on S. sobrinus on saliva coated glass beads", "conditions": "10 seconds of ozone applied to saliva coated glass beads", "method": "In study 2, 40 sterile saliva coated glass beads were put into bijoux bottles with 3 mls of Todd Hewitt broth for control and test groups. S. sobrinus and S. mutans were inoculated and incubated anaerobically overnight. Each glass bead was washed with 2 mls of PBS. Immediately, 10 seconds of ozone was applied to the glass beads in the test groups. Subsequently, each glass bead in the test and control groups was placed in 3 mls of Todd Hewitt broth with six more sterile glass beads and were vortexed for 30 seconds. After decimal dilutions, 100 ml aliquots were spread on blood agar plates supplemented with 5% (V/V) horse blood and placed in an anaerobic chamber at 37° C. for two days. The number of each colony type was counted and calculated."}}}
{"smiles": "O=[O+][O-]", "note": "[ozone]", "values": [{"measurement": "percentage of micro-organisms killed", "setting": "[1]; 10 seconds of ozone, PRCL ex-vivo", "value": "more than 99%"}, {"measurement": "Mean ± SE of Total cfu (Log10)", "setting": "[1]; soft PRCL from extracted teeth", "value": "3.57±0.37", "unit": "Log10"}, {"measurement": "Mean ± SE of Total cfu (Log10)", "setting": "[1]; soft PRCL from extracted teeth, listed as Ozone", "value": "3.57 ± 0.37", "unit": "Log10"}, {"measurement": "Total cfu (log10), mean±SE", "setting": "[1]; after 20 seconds of ozone treatment, soft PRCL from extracted teeth", "value": "3.77±0.42", "unit": "log10"}, {"measurement": "colony count (log10), Mean±SE", "setting": "[2]", "value": "1.09±0.36", "unit": "log10"}]}
